Source: US20210108199A1, “Treatment for aggressive cancers by targeting C9ORF72” (The Trustees of Columbia University in the City of New York, priority 2017, published 2021)

Tests used:
Format in all cases: cell-based
p53 target genes = assay: qRT-PCR of p53 target genes; conditions: U87 cells
Description: (§1) For most RNA experiments, RNA was isolated from cells using the Qiagen™ RNeasy minikit. Complementary DNA was generated using the Qiagen™ Quantitect™ reverse transcription kit with 0.5 μg of input RNA as measured with a NanoDrop spectrophotometer (Thermo Scientific™). Real-time PCR was carried out on an ABI StepOne Plus™ machine using power SYBR Green dye (Thermo Scientific™). Transcript levels were assayed in triplicate and normalized to RPL32 and HPS90 mRNAs. Relative changes in cDNA levels were calculated using the comparative Ct method (ΔΔCT method). All RT-qPCR primers were designed with Primer3Plus™ or retrieved from Primerbank™. Primer sequences are listed here, including in Table 3. All primers were purchased from Life Technologies™. H. Generation of p53 Knock Out U87 Cell Lines by CRISPR
This also is consistent with p53 activation. FIG. 27 presents RT-qPCR analysis of C9ORF72, CDKN1A (p21), NOXA, PUMA, GLUT1, MDM2 and GLUT3 mRNA levels in U87 cells treated with control (siCtrl) and C9 (siC9; SEQ ID NO:631) siRNA. These studies were performed using three biological replicates (n=3); error bars represent S.E.M. Statistical significance was assessed by an unpaired t-test: NS P>0.05, *P≤0.05, **P≤0.01, ***P≤0.001 ****P≤0.0001.

EGF mRNA = assay: qRT-PCR of EGF mRNA; conditions: U87 cells
Description: as §1
How C9 levels affect EGF signaling was investigated. […] Furthermore, after 48 and 72 hours, the reduction of EGF mRNA levels was about 97%. See FIG. 39, which presents data from qRT-PCR analysis, showing mRNA levels of C9ORF72 and EGF in U87 cells treated with control or C9 siRNA for 24, 48 and 72 hours (represented as fold change). Statistical significance was assessed by an unpaired t-test: NS P>0.05, *P≤0.05, **P≤0.01, ***P≤0.001 ****P 0.0001.

cortical neurons = assay: C9 knockdown in neurons and live imaging of mitochondria; conditions: rat-derived cortical neurons
Description: Cortices from E19 embryonic brains from pregnant Sprague-Dawley female rats were dissected in ice-cold HBSS (ThermoFisher™ Scientific #24020117), supplemented with 10 mM HEPES (pH 7.4), 10 mM MgCl2, 1% P/S and 0.5 mM L-glutamine. The hippocampal tissue was discarded and only the cortical tissue was trypsinized for 15 minutes at 37° C. in a water bath and resuspended in DMEM with 10% FBS and 1% P/S. The dissociated neurons were subjected to centrifugation to remove debris, counted and plated onto MatTek™ 35 mm or 50 mm glass bottom dishes pre-coated with Poly-L-Lysine (1 mg/mL) and Laminin, at a density of 100,000 for live imaging experiments. After about 12-15 hours, the medium was changed to Neurobasal medium supplemented with 0.5 mM L-Glutamine, B-27 serum free supplement (Gibco™) and 1% P/S. Media were changed every 2-3 days.
Day 7 cortical neurons were transfected with 80 nM C9orf72 siRNA and 40 ng CMV-GFP vector using a magnetofectamine kit (OZ Biosciences™ #MTX0750). […]

PARP1 mRNA = assay: qRT-PCR of PARP1 mRNA; conditions: U87 cells
Description: as §1
Statistical significance was assessed by an unpaired t-test: NS P>0.05, *P≤0.05, **P≤0.01, ***P≤0.001 ****P≤0.0001.

LAMP1 = LAMP1 western blot; conditions: U87 cells
Description: For Western blot analysis, cells were lysed with lysis buffer (20 mM sodium phosphate (pH 7.0), 250 mM NaCl, 30 mM sodium pyrophosphate, 0.1% Nonidet™ P-40, 5 mM EDTA, 10 mM NaF, 0.1 mM Na3VO4, and 1 mM PMSF) supplemented with complete protease inhibitors (Roche™) and homogenized by passage through a 28 gauge needle. Protein concentration was measured with a Bio-Rad™ protein assay dye reagent and results were read using a spectrophotometer (BiophotometerPlus™ by Eppendorf™). Protein extracts were resolved by SDS PAGE on gradient (Thermo Fisher™) or 12% gels. Proteins were then electrotransferred at 350 mA for 80 minutes onto a PVDF membrane (Immobilon-P PVDF). Membranes were blocked with PBST with 5% milk and 1% BSA for 30 minutes. Quantitation of blots was performed Image Studio Lite software (LI-COR Biosciences™).
To this end, C9 was knocked down in U87 cells and employed a fluorescent autophagy marker ptfLC3 to mark autophagosomes and autophagolysosomes. […] The white arrows show vacuoles and the white box represents a zoom in of the cell area with vacuoles. […] The white box here represents a zoom in of the cell area with vacuoles, nuclei stained with DAPI (blue). FIG. 4B is a WB showing LAMP1 levels after control (siCtrl) and C9 KD (siC9; SEQ ID NO:631).

p53 null U87 cells = assay: qRT-PCR in p53 null U87 KO #4 cells
Description: as §1
See FIG. 32, which presents RT-qPCR analysis of C9ORF72, CDKN1A (p21), PUMA, MDM2 and PARP1 mRNA levels in U87 KO #4 cells treated with control (siCtrl) and C9 (siC9; SEQ ID NO:631) siRNA. These experiments were performed in three biological replicates (n=3) and error bars represent S.E.M. Statistical significance was assessed by unpaired t-test: NS P>0.05, *P≤0.05, **P≤0.01, ***P≤0.001 ****P≤0.0001.

siC9: siRNA targeting C9 mRNA: UUAAUGAAACAAUAAUCACUC (SEQ ID NO:631; sense) and GUGAUUAUUGUUUCAUUAAUC (SEQ ID NO:632; antisense) (listed as RNA, chemistry not given here)
mRNA levels of p53 target genes (p21, MDM2, NOXA, PUMA) (p53 target genes): elevated | mRNA levels of repression targets (GLUT1 and GLUT3) (p53 target genes): lower mRNA levels | reduction of EGF mRNA levels (EGF mRNA; 24 hours after C9 KD): 50% | reduction of EGF mRNA levels (EGF mRNA; 48 hours): about 97% | reduction of EGF mRNA levels (EGF mRNA; 72 hours): about 97% | mitochondria motility (cortical neurons): significantly reduced | mitochondria accumulation (cortical neurons; dendrites): induced mitochondria accumulation in the dendrites | PARP1 mRNA (PARP1 mRNA): significant repression | LAMP1 levels (LAMP1): increased levels | PUMA and MDM2 mRNA (p53 null U87 cells; p53 null U87 KO #4 cells): lower levels | p21 mRNA (p53 null U87 cells; p53 null U87 KO #4 cells): did not result in a significant change | PARP1 mRNA (p53 null U87 cells; p53 null U87 cells): repression was also observed
